Common to all, as to assay: Test 1A glasshouse assay, post-emergence herbicidal activity
What all share (format): in vivo

Experiment [1] relates to Lolium perenne (LOLPE). Conditions: Lolium perenne, 312 h, application rate 250 g/ha, 13 days after application, visual (100%=total damage; 0%=no damage), read-out: Post-emergence Herbicidal Activity (% Phytotoxicity) LOLPE. The procedure: (§1) Seeds of a variety of test species were sown in standard soil in pots. After cultivation for one day (pre-emergence) or after 8 days cultivation (post-emergence) under controlled conditions in a glasshouse (at 24/16° C., day/night; 14 hours light; 65% humidity), the plants were sprayed with an aqueous spray solution derived from the formulation of the technical active ingredient in acetone/water (50:50) solution containing 0.5% Tween 20 (polyoxyethelyene sorbitan monolaurate, CAS RN 9005-64-5). The test plants were then grown under controlled conditions in a glasshouse (at 24/16° C., day/night; 14 hours light; 65% humidity) and watered twice daily. 13 days after application of the test herbicide, for pre- and post-emergence, the test was evaluated visually for percentage phytotoxicity to the plant (where 100%=total damage to plant; 0%=no damage to plant).
(§2) Lolium perenne (LOLPE), Alopecurus myosuroides (ALOMY), Echinochloa crus-galli (ECHCG), and Avena fatua (AVEFA); these are all grassy monocotyledonous weeds.

The test system of experiment [2] is Alopecurus myosuroides (ALOMY). The following applies: application rate 250 g/ha, 13 days after application, visual (100%=total damage; 0%=no damage); for pest or weed control at 250 g/ha: Alopecurus myosuroides, 312 h, read-out: Post-emergence Herbicidal Activity (% Phytotoxicity) ALOMY. Here is the method: as §1, §2
The subject of experiment [3] is Avena fatua (AVEFA). Conditions: Avena fatua, 312 h, application rate 250 g/ha, 13 days after application, visual (100%=total damage; 0%=no damage), read-out: Post-emergence Herbicidal Activity (% Phytotoxicity) AVEFA. The procedure:
as §1, §2

Experiment [4] concerns Echinochloa crus-galli (ECHCG). Conditions: Echinochloa crus-galli, 312 h, application rate 250 g/ha, 13 days after application, visual (100%=total damage; 0%=no damage), read-out: Post-emergence Herbicidal Activity (% Phytotoxicity) ECHCG. Here is the method:
as §1, §2

The record followed here is patent publication US9808003B2, “Herbicidally active 2-(substituted-phenyl)-cyclopentane-1,3-dione compounds and derivatives thereof” (Syngenta Limited, priority 2013, dated 2017).

Molecules are shown by their SMILES.

Take `Cc1cc(C)c(C2C(=O)CC(CCNC(=O)C3CCOCC3)C2=O)c(C)c1` (centres unmarked) [Compound A35]: the pest or weed control at 250 g/ha amounted to 60% in experiment [1], 80% in experiment [2], 40% in experiment [3] and 40% in experiment [4].

`Cc1cc(-n2cc(Cl)cn2)cc(C)c1C1=C(OC(=O)N2CCCC2)CC(CCNC(=O)c2ccccn2)C1=O` (centres unmarked) [Compound P21]: the pest or weed control at 250 g/ha in experiment [1] amounted to 70%; in experiment [2], 80%; in experiment [3] it was 80%; in experiment [4], 100%.

Consider `Cc1cc(C)c(C2C(=O)CC(CCNC(=O)c3ccc(F)c(Br)n3)C2=O)c(C)c1` (centres unmarked) [Compound A186], for which the pest or weed control at 250 g/ha was found to be 100% in experiment [1], 100% in experiment [2], 90% in experiment [3] and 100% in experiment [4].

On to `Cc1cc(-n2ccnn2)cc(C)c1C1C(=O)CC(CCNC(=O)c2ccccn2)C1=O` (centres unmarked) [Compound A171], for which the pest or weed control at 250 g/ha was determined as 10% in experiment [1], 0% in experiment [2], 10% in experiment [3] and 60% in experiment [4].

`Cc1cc(C)c(C2C(=O)CC(CCNC(=O)c3cccc(C)n3)C2=O)c(C)c1` (centres unmarked) [Compound A64]: the pest or weed control at 250 g/ha in experiment [1] was 80%; in experiment [2] it was 90%; in experiment [3], 80%; in experiment [4] it was 60%.

As to `CCSC(=O)OC1=C(c2c(C)cc(C)cc2C)C(=O)CC1CCNC(=O)c1ccc(Br)cn1` (centres unmarked) [Compound P10], the pest or weed control at 250 g/ha in experiment [1], in experiment [2], in experiment [3] and in experiment [4] was 100% each time.

Consider `Cc1cc(C)c(C2=C(OC(=O)c3ccc(F)cc3)CC(CCNC(=O)c3ccc(Br)cn3)C2=O)c(C)c1` (centres unmarked) [Compound P17], for which the pest or weed control at 250 g/ha in experiment [1], in experiment [2], in experiment [3] and in experiment [4] was 100% throughout.

Turning to `Cc1ccnc(C(=O)NCCC2CC(=O)C(c3c(C)cc(-n4cc(Cl)cn4)cc3C)C2=O)c1` (centres unmarked) [Compound A156], the pest or weed control at 250 g/ha came to 90% in experiment [1], 50% in experiment [2], 90% in experiment [3] and 100% in experiment [4].

With `O=C(NCCC1CC(=O)C(c2c(Cl)cc(-c3ccc(F)cc3)cc2Cl)C1=O)c1cccc(F)n1` (centres unmarked) [Compound A165], the pest or weed control at 250 g/ha came to 100% in experiment [1], 90% in experiment [2], 100% in experiment [3] and 100% in experiment [4].

Consider `CC#Cc1cc(C)c(C2C(=O)CC(CCNC(=O)c3cccc(F)n3)C2=O)c(C)c1` (centres unmarked) [Compound A114], for which the pest or weed control at 250 g/ha in experiment [1], in experiment [2], in experiment [3] and in experiment [4] was 100% throughout.

As for `Cc1cc(C)c(C2C(=O)CC(CCNC(=O)c3cc(C4CC4)on3)C2=O)c(C)c1` (centres unmarked) [Compound A162], the pest or weed control at 250 g/ha amounted to 100% in experiment [1], 70% in experiment [2], 90% in experiment [3] and 90% in experiment [4].

Take `Cc1cc(C)c(C2C(=O)CC(CCNC(=O)c3ccc(C(F)(F)F)nc3)C2=O)c(C)c1` (centres unmarked) [Compound A29]: the pest or weed control at 250 g/ha is 80% in experiment [1], 80% in experiment [2], 90% in experiment [3] and 80% in experiment [4].

Regarding `Cc1cc(C)c(C2C(=O)CC(CCNC(=O)c3cc(Cl)nc(Cl)c3)C2=O)c(C)c1` (centres unmarked) [Compound A25], the pest or weed control at 250 g/ha in experiment [1] amounted to 60%; in experiment [2], 50%; in experiment [3] it was 40%; in experiment [4], 80%.

In the case of `Cc1cc(-n2cc(Cl)cn2)cc(C)c1C1C(=O)CC(CCNC(=O)c2ccc(F)cn2)C1=O` (centres unmarked) [Compound A129], the pest or weed control at 250 g/ha in experiment [1], in experiment [2], in experiment [3] and in experiment [4] was 100% in each case.

With `Cc1cc(-n2cc(Cl)cn2)cc(C)c1C1C(=O)CC(CCNC(=O)c2cccc(Cl)n2)C1=O` (centres unmarked) [Compound A132], the pest or weed control at 250 g/ha in experiment [1], in experiment [2], in experiment [3] and in experiment [4] was 100% in each case.

For the compound `Cc1cc(-n2cc(Cl)cn2)cc(C)c1C1=C(OS(=O)(=O)c2ccc(F)cc2)CC(CCNC(=O)c2ccccn2)C1=O` (centres unmarked) [Compound P16], the pest or weed control at 250 g/ha was 100% in experiment [1], 100% in experiment [2], 90% in experiment [3] and 100% in experiment [4].

On to `Cc1cc(C)c(C2=C(OC(=O)C(C)(C)C)CC(CCNC(=O)c3ccc(Br)cn3)C2=O)c(C)c1` (centres unmarked) [Compound P13], for which the pest or weed control at 250 g/ha in experiment [1], in experiment [2], in experiment [3] and in experiment [4] was 100% in each case.

In the case of `CCC(=O)NCCC1CC(=O)C(c2c(C)cc(C)cc2C)C1=O` (centres unmarked) [Compound A10], the pest or weed control at 250 g/ha in experiment [1] is 70%; in experiment [2], 60%; in experiment [3], 70%; in experiment [4] it was 50%.

On to `COc1ccc(C(=O)NCCC2CC(=O)C(c3c(C)cc(C)cc3C)C2=O)cc1` (centres unmarked) [Compound A18], for which the pest or weed control at 250 g/ha is 90% in experiment [1], 60% in experiment [2], 80% in experiment [3] and 100% in experiment [4].

Regarding `Cc1cc(-n2cc(Cl)cn2)cc(C)c1C1C(=O)CC(CCNC(=O)c2nc(Cl)ccc2Cl)C1=O` (centres unmarked) [Compound A131], the pest or weed control at 250 g/ha in experiment [1], in experiment [2], in experiment [3] and in experiment [4] was 100% in each case.

With `Cc1cc(-n2cc(Cl)cn2)cc(C)c1C1C(=O)CC(CCNC(=O)c2cc(Br)ccn2)C1=O` (centres unmarked) [Compound A154], the pest or weed control at 250 g/ha in experiment [1], in experiment [2], in experiment [3] and in experiment [4] was 100% each time.

For `Cc1cc(C)c(C2C(=O)CC(CCNC(=O)c3snc(Cl)c3Cl)C2=O)c(C)c1` (centres unmarked) [Compound A212], the pest or weed control at 250 g/ha in experiment [1] came out at 70%; in experiment [2] it was 30%; in experiment [3] it was 50%; in experiment [4] it was 70%.

Take `Cc1cc(-n2cc(Cl)nn2)cc(C)c1C1C(=O)CC(CCNC(=O)c2ccccn2)C1=O` (centres unmarked) [Compound A170, N-[2-[3-[4-(4-chlorotriazol-1-yl)-2,6-dimethyl-phenyl]-2,4-dioxo-cyclopentyl]ethyl]pyridine-2-carboxamide]: the pest or weed control at 250 g/ha in experiment [1] is 90%; in experiment [2], 90%; in experiment [3], 100%; in experiment [4], 100%. Besides, the “Post-emergence Herbicidal Activity (% Phytotoxicity) ALOMY” value in experiment [2] is 90%.

On to `Cc1cc(C)c(C2C(=O)CC(CCNC(=O)c3cnc(C)cn3)C2=O)c(C)c1` (centres unmarked) [Compound A56], for which the pest or weed control at 250 g/ha in experiment [1] is 100%; in experiment [2] it was 100%; in experiment [3], 90%; in experiment [4], 90%.

Consider `Cc1cc(C)c(C2C(=O)CC(CCNC(=O)c3cc(C(F)(F)F)nn3C)C2=O)c(C)c1` (centres unmarked) [Compound A173], for which the pest or weed control at 250 g/ha in experiment [1], in experiment [2], in experiment [3] and in experiment [4] was 100% throughout.

`CCc1cc(Br)cc(C)c1C1C(=O)CC(CCNC(=O)c2ccccn2)C1=O` (centres unmarked) [Compound A83]: the pest or weed control at 250 g/ha in experiment [1], in experiment [2], in experiment [3] and in experiment [4] was 100% throughout.

`Cc1cc(C)c(C2C(=O)CC(CCNC(=O)c3ncccc3C)C2=O)c(C)c1` (centres unmarked) [Compound A62]: the pest or weed control at 250 g/ha came out at 100% in experiment [1], 100% in experiment [2], 80% in experiment [3] and 80% in experiment [4].

In the case of `Cc1cc(C)c(C2C(=O)CC(CCNC(=O)c3cccc(Cl)n3)C2=O)c(C)c1` (centres unmarked) [Compound A47], the pest or weed control at 250 g/ha was determined as 100% in experiment [1], 80% in experiment [2], 90% in experiment [3] and 100% in experiment [4].
